The numbers were not newly measured in patent publication US20040132743A1 (DR. REDDY'S LABORATORIES LIMITED DR. REDDY'S LABORATORIES, …, priority 2002, published 2004), which cites them from elsewhere.

For data set [1] the following is noted: amorphous form compared with crystalline form.
The conditions of data set [2]: studies in patients.
The conditions of data set [3]: in vivo.

Consider `CO/N=C(\C(=O)N[C@@H]1C(=O)N2C(C(=O)OC(C)OC(C)=O)=C(COC(N)=O)CS[C@H]12)c1ccco1` (stereo partly drawn) [amorphous form of cefuroxime axetil, cefuroxime axetil], for which, in data set [1], the bioavailability entry is “higher bioavailability than its crystalline form”.

For the compound `O=C(O)COCCN1CCN(C(c2ccccc2)c2ccc(Cl)cc2)CC1` (racemic) [cetirizine], the “symptomatic relief of seasonal allergies” value in data set [2] was “safe and effective, symptomatic relief of seasonal allergies”.

In the case of `O=C(O)COCCN1CCN([C@H](c2ccccc2)c2ccc(Cl)cc2)CC1` [Levocetirizine], the “side effects on the central nervous system” value in data set [3] is “free from side effects on the central nervous system”.
